According to ChEMBL document CHEMBL1134339, “New 1-aryl-3-(4-arylpiperazin-1-yl)propane derivatives, with dual action at 5-HT1A serotonin receptors and serotonin transporter, as a new class of antidepressants” (J Med Chem, 2001):

How the values were obtained:
[1] = target: T1, 5-hydroxytryptamine receptor 3A (Rattus norvegicus, UniProt P35563); assay: Affinity at 5-hydroxytryptamine 3 receptor (For granisetron = Ki (nM)=0.3+/-0.01)
T1 sequence (P35563 whole entry): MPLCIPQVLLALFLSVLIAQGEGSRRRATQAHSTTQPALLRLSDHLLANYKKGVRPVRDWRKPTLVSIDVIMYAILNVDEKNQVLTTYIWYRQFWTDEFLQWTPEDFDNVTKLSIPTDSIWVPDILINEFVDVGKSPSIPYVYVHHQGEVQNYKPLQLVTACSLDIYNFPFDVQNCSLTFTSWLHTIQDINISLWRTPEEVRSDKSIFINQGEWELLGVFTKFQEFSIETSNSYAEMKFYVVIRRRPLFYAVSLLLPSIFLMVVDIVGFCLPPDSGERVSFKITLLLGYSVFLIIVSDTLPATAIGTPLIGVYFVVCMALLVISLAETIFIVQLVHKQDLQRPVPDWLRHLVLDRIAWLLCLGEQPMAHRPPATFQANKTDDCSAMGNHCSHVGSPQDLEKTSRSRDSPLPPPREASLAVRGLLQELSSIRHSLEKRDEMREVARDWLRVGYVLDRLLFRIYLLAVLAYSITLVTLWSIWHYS

[2] = target: 5-hydroxytryptamine receptor 2A (Rattus norvegicus, UniProt P14842); assay: Affinity at 5-hydroxytryptamine 2 receptor (For ketanserin = Ki(nM)= 0.7+/-0.09)
Chain of 5-hydroxytryptamine receptor 2A (P14842 whole entry): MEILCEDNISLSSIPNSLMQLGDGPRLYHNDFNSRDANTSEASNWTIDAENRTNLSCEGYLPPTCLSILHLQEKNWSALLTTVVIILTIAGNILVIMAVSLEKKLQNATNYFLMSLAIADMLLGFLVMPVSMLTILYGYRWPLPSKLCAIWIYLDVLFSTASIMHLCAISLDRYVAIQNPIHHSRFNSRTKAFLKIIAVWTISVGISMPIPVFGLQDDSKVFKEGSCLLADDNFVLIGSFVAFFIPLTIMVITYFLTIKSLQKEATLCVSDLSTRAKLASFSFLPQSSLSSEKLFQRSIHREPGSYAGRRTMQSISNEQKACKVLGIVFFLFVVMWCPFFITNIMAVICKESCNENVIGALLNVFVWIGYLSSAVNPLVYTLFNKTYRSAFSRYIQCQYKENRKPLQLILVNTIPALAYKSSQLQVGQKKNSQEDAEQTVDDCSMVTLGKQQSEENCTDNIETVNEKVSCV

Mus musculus [3] = assay: Antidepressant-like activity in the forced swimming test (FST) in mice at 0.1 mg/kg dose; type: functional
Adrenergic receptor beta = Adrenergic receptor beta (Rattus norvegicus, UniProt P18090+P10608+P26255); assay: Affinity at beta-adrenoceptor (For DHA Ki(nM)= 3.5+/-0.3); type: protein assay
Mus musculus [4] = assay: Antidepressant-like activity in the forced swimming test (FST) in mice at 1 mg/kg dose; type: functional
D(2) dopamine receptor = D(2) dopamine receptor (Rattus norvegicus, UniProt P61169); assay: Affinity at dopamine D2 receptor, (For haloperidol Ki(nM)= 1.5+/-1.2)
Chain of D(2) dopamine receptor (P61169 whole entry): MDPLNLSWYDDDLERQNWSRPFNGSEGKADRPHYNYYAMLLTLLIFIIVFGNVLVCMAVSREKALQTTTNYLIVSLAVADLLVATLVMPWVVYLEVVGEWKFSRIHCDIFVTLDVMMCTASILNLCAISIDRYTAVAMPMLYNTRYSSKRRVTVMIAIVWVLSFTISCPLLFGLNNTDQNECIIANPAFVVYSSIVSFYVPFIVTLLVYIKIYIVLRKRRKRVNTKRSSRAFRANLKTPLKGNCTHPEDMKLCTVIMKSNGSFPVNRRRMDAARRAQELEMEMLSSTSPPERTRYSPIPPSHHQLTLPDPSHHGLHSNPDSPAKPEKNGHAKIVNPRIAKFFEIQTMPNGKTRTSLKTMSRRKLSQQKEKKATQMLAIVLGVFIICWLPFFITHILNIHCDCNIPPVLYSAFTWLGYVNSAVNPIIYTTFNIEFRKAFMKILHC

Mus musculus [5] = assay: Antidepressant-like activity in the forced swimming test (FST) in mice at 10 mg/kg dose; type: functional
[6] = target: Muscarinic acetylcholine receptor; assay: Affinity at muscarinic receptor, (For atropine Ki(nM)= 3.5+/-0.3); type: protein assay
[7] = target: 5-hydroxytryptamine receptor 1D (Homo sapiens, UniProt P28221); assay: Affinity at 5-hydroxytryptamine 1D receptor (For sumatriptan = Ki (nM)-12+/-1.9)
Chain of 5-hydroxytryptamine receptor 1D (P28221 whole entry): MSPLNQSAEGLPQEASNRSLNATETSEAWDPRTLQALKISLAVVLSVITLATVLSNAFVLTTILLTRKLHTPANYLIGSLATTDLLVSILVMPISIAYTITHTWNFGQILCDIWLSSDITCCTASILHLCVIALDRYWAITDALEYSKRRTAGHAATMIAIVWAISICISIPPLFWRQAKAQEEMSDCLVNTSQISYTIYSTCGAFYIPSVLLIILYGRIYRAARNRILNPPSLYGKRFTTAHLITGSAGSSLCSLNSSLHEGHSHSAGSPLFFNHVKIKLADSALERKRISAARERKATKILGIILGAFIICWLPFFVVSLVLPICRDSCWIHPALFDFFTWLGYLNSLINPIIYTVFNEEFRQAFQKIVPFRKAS

[8] = target: T2, 5-hydroxytryptamine receptor 1A (Homo sapiens) (UniProt P08908); assay: Percent increase in the Forskolin-Stimulated cAMP formation, in HeLa cells transfected with the 5-HT 1A receptor a [compound (1 uM)]; type: functional, cell-based
T2 sequence (whole entry): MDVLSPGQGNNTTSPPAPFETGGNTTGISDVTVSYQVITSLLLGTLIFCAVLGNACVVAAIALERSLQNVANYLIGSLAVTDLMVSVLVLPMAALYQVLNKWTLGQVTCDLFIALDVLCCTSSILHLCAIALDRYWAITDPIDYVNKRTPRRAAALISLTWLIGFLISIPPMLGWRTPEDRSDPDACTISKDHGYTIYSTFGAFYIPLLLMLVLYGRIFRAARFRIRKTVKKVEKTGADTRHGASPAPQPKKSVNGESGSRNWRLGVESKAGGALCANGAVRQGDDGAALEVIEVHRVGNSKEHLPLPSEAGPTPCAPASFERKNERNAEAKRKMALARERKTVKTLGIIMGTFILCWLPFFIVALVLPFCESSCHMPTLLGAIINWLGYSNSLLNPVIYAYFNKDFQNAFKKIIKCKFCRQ

Mus musculus [9] = assay: Time-dependent effect on 8-OH-DPAT-induced hypothermia (change in body temperature) after 30 min, in mice at 0.01 mg/kg dose; type: functional
Mus musculus [10] = assay: Time-dependent effect on 8-OH-DPAT-induced hypothermia (change in body temperature) after 15 min, in mice at 0.01 mg/kg dose; type: functional
Mus musculus [11] = assay: Time-dependent effect on 8-OH-DPAT-induced hypothermia (change in body temperature) after 60 min, in mice at 0.01 mg/kg dose; type: functional
Rattus norvegicus [12] = assay: Effect on helpless behavior in rats and the number of escape failures was determined in shuttle-box session-2 (SB-2) at 10 mg/kg dose; type: functional
Rattus norvegicus [13] = assay: Effect on helpless behavior in rats and the number of escape failures was determined in shuttle-box session-1 (SB-1) at 10 mg/kg dose; type: functional
Mus musculus [14] = assay: Effect on immobility time in the forced swimming test (FST) in mice at 0.001 mg/kg dose; type: functional
Rattus norvegicus [15] = assay: Effect on helpless behavior in rats and the number of escape failures was determined in shuttle-box session-3 (SB-) at 1 mg/kg dose; type: functional
Mus musculus [16] = assay: Effect on immobility time in the forced swimming test (FST) in mice at 0.01 mg/kg dose; type: functional
[17] = target: T2, 5-hydroxytryptamine receptor 1A (Homo sapiens); assay: Percent increase in the Forskolin-Stimulated cAMP formation, in HeLa cells transfected with the 5-HT 1A receptor at 1 uM concentration; type: functional, cell-based
Rattus norvegicus [18] = assay: Effect on helpless behavior in rats and the number of escape failures was determined in shuttle-box session-3 (SB-3) at 10 mg/kg dose; type: functional
Mus musculus [19] = assay: Antidepressant-like activity in the forced swimming test (FST) in mice at 0.001 mg/kg dose; Antidepressant like activity; type: functional
Mus musculus [20] = assay: Antidepressant-like activity in the forced swimming test (FST) in mice at 0.01 mg/kg dose; Antidepressant like activity; type: functional

Work on COc1ccccc1N1CCN(CCC(=O)c2csc3ccccc23)CC1 yielded a Ki [1] of over 5 µM, a Ki [2] of 5 µM and an Activity (Mus musculus [3]) of 18%. The Ki (Adrenergic receptor beta) was over 5 µM, the Activity (Mus musculus [4]) was 60% and the Ki (D(2) dopamine receptor) was 0.5 µM. The Activity (Mus musculus [5]) was 54%, the Ki [6] was over 5 µM and the Ki [7] was 5 µM.
COc1ccccc1N1CCN(CCC(Oc2cccc3ccccc23)c2ccsc2)CC1 (configuration not stated) gave a cAMP increase [8] of 52%.
Work on COc1ccccc1N1CCN(CCC(O)c2csc3ccccc23)CC1 (configuration not stated) yielded a Temperature change (Mus musculus [9]) of -1.3 °C, a Temperature change (Mus musculus [10]) of -1.26 °C and a Temperature change (Mus musculus [11]) of -0.73 °C. For the same molecule, the “No. of escape failures” value (Rattus norvegicus [12]) was 3.2, the “No. of escape failures” value (Rattus norvegicus [13]) was 6.6 and the Immobility time (Mus musculus [14]) was under 58.8 s. The “No. of escape failures” value (Rattus norvegicus [15]) was 1.8, the Immobility time (Mus musculus [16]) was under 54.4 s and the cAMP increase [17] was 64%. The “No. of escape failures” value (Rattus norvegicus [18]) was 4, the Activity (Mus musculus [19]) was 67% and the Activity (Mus musculus [20]) was 70%.
